The text below walks through data of patent publication US5128346A, “Derivatives of D-glutamic acid and D-aspartic acid” (priority 1990, dated 1992).

One assay addresses T1, Type-B CCK receptor (Cavia porcellus, UniProt H0VZC5).
T1 construct: cortex and pancreas were removed and rinsed with ice cold saline; from tissue; host or cells: guinea pig cerebral cortex, membranes
T1 sequence (H0VZC5 1-426): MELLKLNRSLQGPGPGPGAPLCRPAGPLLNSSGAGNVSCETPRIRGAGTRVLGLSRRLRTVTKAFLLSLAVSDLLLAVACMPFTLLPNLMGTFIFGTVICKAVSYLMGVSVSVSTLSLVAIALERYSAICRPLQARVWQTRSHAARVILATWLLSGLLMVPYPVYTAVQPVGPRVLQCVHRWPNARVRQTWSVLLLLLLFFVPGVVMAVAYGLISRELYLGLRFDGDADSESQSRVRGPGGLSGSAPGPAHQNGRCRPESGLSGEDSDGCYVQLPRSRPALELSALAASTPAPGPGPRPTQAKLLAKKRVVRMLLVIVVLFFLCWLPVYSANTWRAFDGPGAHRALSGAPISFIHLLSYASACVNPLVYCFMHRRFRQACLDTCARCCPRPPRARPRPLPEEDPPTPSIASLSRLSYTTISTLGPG
As to the kind of experiment: Radioligand binding, [^125 I]-BH-CCK8, Type-B CCK receptor (cerebral cortical membranes). The conditions noted are these: for IC50, [^125 I]-BH-CCK, Type-B CCK Receptor: guinea pig cerebral cortical membranes, 30° C., 150 min, IC50 from Hill analysis. The arrangement: species or system guinea pig. An excerpt: (§1) CCK8 [Asp-Tyr(SO3 H)-Met-Gly-Trp-Met-Asp-Phe-NH2 ] was purchased from Beckman Instruments (Palo Alto, Ca/) and Peptide International (Louisville, Ky.). Chymostatin, L-Try-Gly, puromycin, bestatin, EGTA, HEPES and BSA were purchased from Sigma Chemical Co. (St. Louis, Mo.). [^125 I]BH-CCK8 (specific activity, 2200 Ci/mmol) and Aquasol 2 scintillation cocktail were obtained from New England Nuclear (Boston, Ma.). Male guinea pigs, 250 to 325 g, were obtained from Scientific Small Animal Laboratory and Farm (Arlington Heights, Ill.). Collagenase, 300 units per mg, was purchased from Worthington (Frehold, N.J.)
(§2) 1. Guinea Pig Cerebral Cortical and Pancreatic Membrane Preparations
(§3) Cortical and pancreatic membrances were prepared as described (Lin and Miller; J. Pharmacol. Exp. Ther. 232, 775-780, 1985). In brief, cortex and pancreas were removed and rinsed with ice cold saline. Visible fat and connective tissues were removed from the pancreas. Tissues were weighed and homogenized separately in approximately 25 mL of ice-cold 50 mM Tris-HCl buffer, pH 7.4 at 4° C., with a Brinkman Polytron for 30 sec, setting 7. The homogenates were centrifuged for 10 min at 1075×g and pellets were discarded. The supernatants were saved and centrifuged at 38,730×g for 20 min. The resultant pellets were rehomogenized in 25 mL of 50 mM Tris-HCl buffer with a Teflon-glass homogenizer, 5 up and down strokes. The homogenates were centrifuged again at 38,730×g for 20 min. Pellets were then resuspended in 20 mM HEPES, containing 1 mM EGTA., 118 mM NaCl, 5 mM MgCl2, 100 microM bestatin, 3 microM phosphoramidon, pH 7.4 at 22° C., with a Teflon-glass homogenizer, 15 up and down strokes. Resuspension volume for the cortex was 15-18 mL per gm of original wet weight and 60 mL per gm for the pancreas.
^125 I]Bolton-Hunter CCK8, and test compounds were diluted with HEPES-EGTA-salt buffer (see above) containing 0.5% bovine serum albumin (BSA). To 1 mL Skatron polystyrene tubes were added 25 microliters of test compounds, 25 miroliters of [^125 I]BH-CCK8, and 200 microliters of membrane suspension. The final BSA concentration was 0.1%. The cortical tissues were incubated at 30° C. for 150 min and pancreatic tissues were incubated at 37° C. for 30 min. Incubations were terminated by filtration using Skatron Cell Harvester and SS32 microfiber filter mats. […] IC50 's were determined from the Hill analysis.

Another assay deals with T2, Type-A CCK receptor (Cavia porcellus, UniProt Q63931).
T2 construct: cortex and pancreas were removed and rinsed with ice cold saline; from tissue; host or cells: guinea pig pancreas, membranes
T2 sequence (Q63931 1-430): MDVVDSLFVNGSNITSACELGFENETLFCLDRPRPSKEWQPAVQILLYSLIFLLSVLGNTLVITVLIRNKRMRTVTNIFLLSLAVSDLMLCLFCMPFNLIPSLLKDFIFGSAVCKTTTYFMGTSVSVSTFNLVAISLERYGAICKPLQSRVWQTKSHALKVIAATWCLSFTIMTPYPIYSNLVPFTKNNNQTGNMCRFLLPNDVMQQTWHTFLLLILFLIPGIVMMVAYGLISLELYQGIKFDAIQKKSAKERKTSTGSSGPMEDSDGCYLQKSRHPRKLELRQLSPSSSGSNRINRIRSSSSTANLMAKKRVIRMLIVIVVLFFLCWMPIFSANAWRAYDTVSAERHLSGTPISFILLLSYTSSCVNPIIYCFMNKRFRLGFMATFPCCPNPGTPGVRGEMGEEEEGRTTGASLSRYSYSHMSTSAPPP
As to the kind of experiment: Radioligand binding, [^125 I]-BH-CCK8, Type-A CCK receptor (pancreatic membranes). The arrangement: species or system guinea pig.
Source text: as §1, §2, §3
^125 I]Bolton-Hunter CCK8, and test compounds were diluted with HEPES-EGTA-salt buffer (see above) containing 0.5% bovine serum albumin (BSA). To 1 mL Skatron polystyrene tubes were added 25 microliters of test compounds, 25 miroliters of [^125 I]BH-CCK8, and 200 microliters of membrane suspension. The final BSA concentration was 0.1%. The cortical tissues were incubated at 30° C. for 150 min and pancreatic tissues were incubated at 37° C. for 30 min. Incubations were terminated by filtration using Skatron Cell Harvester and SS32 microfiber filter mats. The specific binding of [^125 I]BH-CCK8, defined as the difference between binding in the absence and presence of 1 microM CCK8, was 85 90% of pancreas. IC50 's were determined from the Hill analysis.

Some results are limits rather than exact numbers.

In general, IC50 refers to the concentration needed to halve the response being measured. Turning to `CCCCCN(CCCCC)C(=O)[C@@H](CCC(=O)OCc1ccccc1)NC(=O)c1cc2ccccc2[nH]1` [Example 3, N-(2'-Indolylcarbonyl)-(γ-benzyl ester)-R-Glu-di-n-pentylamide], the figures for the IC50 on Type-B CCK receptor and on Type-A CCK receptor were 3500 nM and 240 nM, respectively.

Consider `CCCCCN(CCCCC)C(=O)[C@@H](CCC(=O)O)NC(=O)c1ccc2ccccc2n1` [Example 6, N-(2,-Quinolylcarbonyl)-R-Glu-N^α,N^α -di-n-pentylamide], for which the IC50 at Type-B CCK receptor came to 4200 nM; on Type-A CCK receptor it was 62 nM.

In the case of `CCCCCN(CCCCC)C(=O)[C@@H](CCC(=O)O)NC(=O)c1cnc2ccccc2n1` [Example 10, N-(2'-Quinoxalylcarbonyl)-R-Glu-N^α,N^α -di-n-pentylamide], the values for the IC50 at Type-B CCK receptor and on Type-A CCK receptor were 6500 nM and 34 nM, respectively.

`CCCCCN(CCCCC)C(=O)[C@@H](CCC(=O)O)NC(=O)C1CNc2ccccc2N1` (stereo partly drawn) [Example 13, N-(1',2',3',4'-Tetrahydroquinoxalyl-2'-carbonyl)-R-Glu-N^α,N^α -di-n-pentylamide]: the IC50 was 5600 nM on Type-B CCK receptor and 92 nM at Type-A CCK receptor.

With `CCCCCN(CCCCC)C(=O)[C@@H](CC(=O)OCc1ccccc1)NC(=O)c1cc2ccccc2[nH]1` [Example 18], the IC50 at Type-B CCK receptor is 2900 nM; at Type-A CCK receptor it was 820 nM.

As to `CCCCCN(CCCCC)C(=O)[C@@H](CC(=O)O)NC(=O)c1ccc2ccccc2n1` [Example 21, N-(2'-Quinolylcarbonyl)-R-Asp-N^α,N^α -di-n-pentylamide], the IC50 came out at 6600 nM at Type-B CCK receptor and 210 nM on Type-A CCK receptor.

In the case of `CCCCCN(CCCCC)C(=O)[C@@H](CCC(N)=O)NC(=O)c1cc2ccccc2[nH]1` [Example 22, N-(2'-Indolylcarbonyl)-R-Gln-N^α,N^α -di-n-pentylamide], the IC50 on Type-B CCK receptor turned out to be 6660 nM; at Type-A CCK receptor, 97 nM.

Regarding `O=C(CC[C@@H](NC(=O)c1cnc2ccccc2c1)C(=O)NCc1ccccc1)OCc1ccccc1` [Example 25, N-(3'-Quinolylcarbonyl)-(γ-benzyl ester)-R-Glu-benzylamide], the IC50 at Type-B CCK receptor was more than 10000 nM; at Type-A CCK receptor it was 310 nM.

For `COC(=O)[C@@H](NC(=O)[C@@H](CCC(=O)OCc1ccccc1)NC(=O)c1cc2ccccc2[nH]1)c1ccccc1` [Example 36, Methyl N-(2'-Indolylcarbonyl)-(γ-benzylester)-R-Glutamyl-S-phenylglycinate], the values for the IC50 at Type-B CCK receptor and on Type-A CCK receptor were 6300 nM and 200 nM, respectively.

For `COC(=O)[C@@H](NC(=O)[C@@H](CCC(=O)O)NC(=O)c1cc2ccccc2[nH]1)c1ccccc1` [Example 37, Methyl N-(2'-Indolylcarbonyl)-R-Glutamyl-S-phenylglycinate], the “IC50, [^125 I]-BH-CCK, Type-B CCK Receptor” value on Type-B CCK receptor was 1-10,000 nM. Besides, the IC50 on Type-A CCK receptor turned out to be 49 nM.

As for `O=C(O)CC[C@@H](NC(=O)c1cc2ccccc2[nH]1)C(=O)Nc1ccccc1-c1ccccc1` [Example 38, N-(2'-Indolylcarbonyl)-R-Glu-N^α -(2'-biphenylamide)], the IC50 amounted to 7100 nM at Type-B CCK receptor and 900 nM at Type-A CCK receptor.

Consider `O=C(O)CC[C@@H](NC(=O)c1cc2ccccc2[nH]1)C(=O)NC12CC3CC(CC(C3)C1)C2` [Example 54, N-(2'-Indolylcarbonyl)-R-Glu-N^α -(1,-adamantyl)amide], for which the results for the IC50 on Type-B CCK receptor and at Type-A CCK receptor were more than 10000 nM and 660 nM, respectively.

Take `CCCCCN(CCCCC)C(=O)[C@@H](CCC(=O)O)NC(=O)c1cc2ccccc2n1C` [Example 60, N-(N^i -Methyl-2,-Indolylcarbonyl)-R-Glu-N^α,N^α -dipentylamide]: on Type-B CCK receptor, the “IC50, [^125 I]-BH-CCK, Type-B CCK Receptor” value is listed as 1-10,000 nM. The compound also yielded an IC50 at Type-A CCK receptor of 34 nM.

As for `CCOC(=O)CN(Cc1ccccc1)C(=O)[C@@H](CCC(=O)OCc1ccccc1)NC(=O)c1cnc2ccccc2c1` [Example 82, Ethyl N-(3,-Quinolylcarbonyl)-(γ-benzylester)-R-Glutamyl (N-benzyl)glycinate], the IC50 came out at 10000 nM at Type-B CCK receptor and 250 nM on Type-A CCK receptor.

For the compound `CCOC(=O)CN(Cc1ccccc1)C(=O)[C@@H](CCC(=O)O)NC(=O)c1cnc2ccccc2c1` [Example 83, Ethyl N-(3'-Quinolylcarbonyl)-R-Glutamyl(N-benzyl)glycinate], the figures for the IC50 on Type-B CCK receptor and on Type-A CCK receptor were more than 10000 nM and 44 nM, respectively.

Consider `CCOC(=O)CN(Cc1ccccc1)C(=O)[C@@H](CCC(=O)OCc1ccccc1)NC(=O)c1cc(O)c2cccc(O)c2n1` [Example 84], for which the IC50 on Type-B CCK receptor was determined as 620 nM; at Type-A CCK receptor it was 28 nM.

Take `CCOC(=O)CN(Cc1ccccc1)C(=O)[C@@H](CCC(=O)O)NC(=O)c1cc(O)c2cccc(O)c2n1` [Example 85, Ethyl N-(4',8'-Dihydroxyquinolyl-2-carbonyl)-R-Glutamyl (N-benzyl)glycinate]: the IC50 on Type-B CCK receptor was less than 10000 nM; at Type-A CCK receptor, 100 nM.

With `COC(=O)[C@@H](NC(=O)[C@@H](CCC(=O)O)NC(=O)c1ccc2ccccc2c1)c1ccccc1` [Example 89, Methyl N-(2 '-Naphthoyl)-R-Glutamyl-S-phenylglycinate], the values for the concentration for half-maximal inhibition (IC50) on Type-B CCK receptor and on Type-A CCK receptor were more than 10000 nM and 140 nM, respectively.

For `COC(=O)[C@@H](NC(=O)[C@@H](CCC(=O)O)NC(=O)c1cnc2ccccc2c1)c1ccccc1` [Example 91, Methyl N-(3,-Quinolylcarbonyl)-R-Glutamyl-S-phenylglycinate], the IC50 is more than 10000 nM on Type-B CCK receptor and 68 nM on Type-A CCK receptor.

As for `COC(=O)[C@@H](NC(=O)[C@@H](CCC(=O)O)NC(=O)c1cc(O)c2cccc(O)c2n1)c1ccccc1` [Example 93, Methyl N-(4',8'-Dihydroxyquinolyl-2-carbonyl)-R-Glutamyl-S-phenylglycinate], the figures for the half-maximal inhibitory concentration (IC50) at Type-B CCK receptor and at Type-A CCK receptor were not above 10000 nM and 100 nM, respectively.

`CCOC(=O)CN(CC(=O)OCC)C(=O)[C@@H](CCC(=O)OCc1ccccc1)NC(=O)c1cnc2ccccc2c1` [Example 106, N-(3'-Quinolylcarbonyl)-(γ-Benzyl ester)-R-Glutamyl-bis(carboethoxymethyl)amide]: the IC50 on Type-B CCK receptor is approximately 10000 nM; on Type-A CCK receptor it was 93 nM.

With `CCOC(=O)CN(CC(=O)OCC)C(=O)[C@@H](CCC(=O)O)NC(=O)c1cnc2ccccc2c1` [Example 107, N-(3,-Quinolylcarbonyl)-R-Glutamyl-bis(carboethoxymethyl)amide], the results for the IC50 at Type-B CCK receptor and on Type-A CCK receptor were more than 10000 nM and 110 nM, respectively.
